Source: publication PMC11597774, “Investigation of Antimicrobial and Anti-Inflammatory Efficacy of Newly Synthesized Pyrogallol-Coumarin Hybrids: In Vitro and In Silico Studies” (Pharmaceutics, 2024)
In brackets after ≈: the same amount, converted by molar mass.

What was measured:
S. aureus (isolate) = assay: Microdilution MIC/MMC with resazurin; format: cell-based, Staphylococcus aureus; conditions: for MIC: Staphylococcus aureus
Procedure: (§1) The antimicrobial activity of PCH-1 and PCH-2 was tested against 13 microorganisms. The experiment included four standard strains, Staphylococcus aureus ATCC 6538, Bacillus subtilis ATCC 6633, Proteus mirabilis ATCC 12453, and Pseudomonas aeruginosa ATCC 27853; five isolates, Staphylococcus aureus, Escherichia coli, Salmonella enterica, Klebsiella pneumoniae, and Bacillus subtilis; and one probiotic strain Lactobacillus plantarum 299V. Additionally, three fungal strains were tested, including one standard strain, Candida albicans ATCC 10231, and two isolates, Saccharomyces cerevisiae and probiotic strain Saccharomyces boulardii.
(§2) The bacterial suspensions were prepared using the direct colony method. The turbidity of the initial suspension was adjusted using a densitometer (DEN-1, BioSan, Latvia). When adjusted to the turbidity of the 0.5 McFarland standard, the bacterial suspension contains approximately 10^8 colony-forming units (CFU)/mL, and the yeast suspension contains approximately 10^6 CFU/mL. For the experiment, the initial suspension was further diluted at a 1:100 ratio in a sterile 0.85% saline solution.
(§3) The antimicrobial activity was assessed by determining the minimum inhibitory concentrations (MICs) and minimum microbicidal concentrations (MMCs) using the microdilution plate method with resazurin (Alfa Aesar GmbH & Co. (KG, Karlsruhe, Germany)). For this, 96-well plates were prepared by adding 100 μL of Mueller Hinton broth (Torlak, Belgrade, Serbia) for bacterial tests and Sabouraud broth (Torlak, Belgrade, Serbia) for yeast into each well. The tested PCH-1 and PCH-2 were dissolved in 10% dimethyl sulfoxide (DMSO) and then diluted into sterile distilled water. A 100 μL sample from the stock solution of the tested compound was then added to the first row of the plate, followed by twofold serial dilutions using a multichannel pipette. This produced a concentration range from 2.69 to 0.0025 µmol/L. The method is described in detail in the reported paper.
(§4) Each test setup included growth control and sterility control. […] Minimum microbicidal concentrations (MMCs) were determined as described in detail in the reported paper.

S. enterica = assay: Microdilution MIC/MMC with resazurin; format: cell-based, Salmonella enterica; conditions: for MMC: S. enterica; for MIC: Salmonella enterica
Procedure: as §1, §2, §3, §4

C. albicans ATCC 10231 = assay: Microdilution MIC/MMC with resazurin; format: cell-based, Candida albicans; conditions: for MIC: Candida albicans, ATCC10231
Procedure: as §1, §2, §3, §4

P. mirabilis ATCC 12453 = assay: Inhibition of biofilm formation (crystal violet); format: cell-based, Proteus mirabilis; conditions: for BIC90: P. mirabilis ATCC 12453, 48 h; for IC50: Proteus mirabilis, ATCC12453, P. mirabilis ATCC 12453, 48 h, read-out: BIC50
Procedure: The ability of S. aureus ATCC 6538, P. mirabilis ATCC 12453, and P. aeruginosa ATCC 27853 to form biofilms was assayed as described by O’Toole et al. (2000), with some modifications. Briefly, tissue culture 96-well microtiter plates (Sarstedt, Germany) were prepared by dispensing 100 µL of nutrient broth (i.e., Mueller Hinton broth) into each well. Then, 10 µL of spore suspension (1.0 McFarland for Gram-positive bacteria and 0.5 McFarland for Gram-negative bacteria) was added to each row. To encourage biofilm formation, all plates were incubated at 37 °C for 48 h, after which the content of each well was emptied and washed twice with 200 µL of sterile 0.85% saline to remove non-adherent cells. The biofilms formed were fixed by adding 100 µL of methanol until it evaporated completely, then stained with 0.1% (w/v) crystal violet (Fluka AG, Buchs, Switzerland) and left at room temperature for 20 min. The excess stain was washed away with deionized water, followed by […] of 96% ethanol. The optical densities (ODs) of the stained biofilms were measured with an ELISA plate reader (RT-2100C, Rayto, Shenzhen, China) at 630 nm. Control wells containing only broth were included to verify sterility and prevent nonspecific media binding. To account for background absorbance, OD readings from sterile medium, fixative, and dye were averaged and subtracted from all test measurements. All tests were conducted in duplicate. The tissue culture 96-well microtiter plates (Sarstedt, Germany) were prepared by dispensing 100 µL of nutrient broth (i.e., Mueller Hinton broth) into each well. From the stock solutions of tested PCH-1 and PCH-2 (at a concentration of 5.4 µmol/L), 100 µL was added to the first row of the microtiter plate. Twofold serial dilutions were then performed, followed by the addition of 10 µL of bacterial suspension to each well. The turbidity of the bacterial suspension was 0.5 McFarland for Gram-negative bacteria and 1.0 McFarland for Gram-positive bacteria. The microtiter plates prepared in this way were incubated at 37 °C for 48 h. The remaining steps of the experiment were carried out as outlined below. […] Only broth or broth with tested PCH-1 and PCH-2 served as controls to check sterility and nonspecific binding of media. To compensate for background absorbance, OD readings from sterile medium, extracts, fixative, and dye were averaged and subtracted from all test values. All tests were performed in duplicate.

| Structure (SMILES) | MMC (S. aureus (isolate)) | MIC (S. aureus (isolate)) | MMC (S. enterica) | MIC (S. enterica) | MMC (C. albicans ATCC 10231) | MIC (C. albicans ATCC 10231) | BIC90 (P. mirabilis ATCC 12453) | IC50 (P. mirabilis ATCC 12453) |
| --- | --- | --- | --- | --- | --- | --- | --- | --- |
| C/C(NNC(=O)c1ccc(O)c(O)c1O)=C1\C(=O)Oc2ccccc2C1=O [PCH-1, (E)-N′-(1-(2,4-dioxochroman-3-ylidene)ethyl)-2,3,4-trihydroxybenzohydrazide] | 2.70 mM | 2700 µM (≈ 1000 µg/mL) | 0.17 mM | 170 µM (≈ 63 µg/mL) | 0.34 mM | 170 µM (≈ 63 µg/mL) | ˃2.70 mM | > 2700 µM |
| C/C(NNC(=O)c1cc(O)c(O)c(O)c1)=C1\C(=O)Oc2ccccc2C1=O [PCH-2, (E)-N′-(1-(2,4-dioxochroman-3-ylidene)ethyl)-3,4,5-trihydroxybenzohydrazide] | 1.35 mM | 1350 µM (≈ 500 µg/mL) | 0.34 mM | 80 µM (≈ 29.6 µg/mL) | 1.35 mM | 170 µM (≈ 63 µg/mL) | ˃2.70 mM | 2150 µM |
